Data as given in patent publication US20240238424A1, “HETEROBIFUNCTIONAL COMPOUNDS AND METHODS OF TREATING DISEASE” (Halda Therapeutics OpCo, Inc., priority 2021, published 2024).

Columns and labels:
Type in all cases: cell-based
22RV1 cells = test: Cellular growth inhibition assay (CTG), 22RV1 cells; settings: Homo sapiens, CellTiter-Glo 2.0, day-5
Description: (§1) Cells were seeded in Poly-D-lysine-treated 384-well white plates, with 25 μL cell suspension at 250 cells/well for continuous treatments, and 1000 cells/well for washout treatments. Plates were spun at 300×g for 3 minutes, and cells were cultured at 37° C. with 5% CO2 in a humidified tissue culture incubator.
(§2) After 24 hours, the test compounds were diluted with cell culture medium in 96 deep well plates. DMSO was used as a negative control. A 25 μL aliquot of compound-containing medium was added in each well, at a final top concentration of 10 μM or 30 μM test compound, with 3-fold dilutions. For washout assays, after 4 hours, cell medium with compound was removed, and the cells were washed with 75p L fresh medium. Plates were then spun at 300×g for 3 minutes and replaced with 50 μL fresh medium in each well. Plates were then spun at 300×g for 3 minutes again and cultured at 37° C. with 5% CO2.
(§3) At day-0 and day-5 of compound treatments, cell viability was quantified with CellTiter-Glo 2.0 (Promega). After equilibrating cell plates at room temperature for 30 minutes, 25 μL CellTiter-Glo 2.0 reagent was dispensed into each well (on top of 50 μL of cell culture). Plates were mixed on a shaker for 2 minutes at 500 rpm, followed by a 10-minute incubation at room temperature. Luminescence readings were measured with an EnVision Plate Reader. Data was normalized to DMSO treated day-0 cell wells. A four-parameter non-linear regression curve fit was applied to dose-response data in Prism to determine the half maximal growth inhibitory concentration (GI50) of each compound.

GSPT1 = molecular target: T1, GSPT1 (Homo sapiens, UniProt P15170+Q96SW2); test: GSPT1 HiBit degradation assay; settings: Table 3; HEK293 LgBiT cells expressing GSPT1_HiBiT, luminescence after 6 hours
T1 construct: host or cells: HEK293 LgBiT cell line
How it was run: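 Degradation readout is luminescence at 6 h, with DC50 taken as the concentration giving 50% GSPT1 loss. Compound titrations were added together with endurazine (0.5× final) to HEK293 LgBiT/GSPT1-HiBiT cells seeded the day before and kept at 37 °C.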

U937 cells = test: Cellular growth inhibition assay (CTG), U937 cells; settings: Homo sapiens, U-937, CellTiter-Glo 2.0, day-5
Description: as §1, §2, §3

T1 sequence (P15170 whole entry): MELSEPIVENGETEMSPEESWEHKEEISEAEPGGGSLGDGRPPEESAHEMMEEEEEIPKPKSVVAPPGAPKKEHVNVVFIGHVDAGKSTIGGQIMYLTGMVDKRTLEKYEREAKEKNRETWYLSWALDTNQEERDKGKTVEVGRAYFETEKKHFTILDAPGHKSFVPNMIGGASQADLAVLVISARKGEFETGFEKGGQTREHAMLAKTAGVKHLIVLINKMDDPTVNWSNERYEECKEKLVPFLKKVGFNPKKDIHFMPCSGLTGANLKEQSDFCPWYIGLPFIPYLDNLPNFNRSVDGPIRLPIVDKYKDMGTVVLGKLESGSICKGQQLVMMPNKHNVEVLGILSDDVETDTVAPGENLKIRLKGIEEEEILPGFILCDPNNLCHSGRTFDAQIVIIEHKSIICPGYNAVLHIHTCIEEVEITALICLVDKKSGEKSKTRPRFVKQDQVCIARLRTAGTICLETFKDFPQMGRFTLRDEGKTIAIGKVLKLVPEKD
T1 sequence (Q96SW2 whole entry): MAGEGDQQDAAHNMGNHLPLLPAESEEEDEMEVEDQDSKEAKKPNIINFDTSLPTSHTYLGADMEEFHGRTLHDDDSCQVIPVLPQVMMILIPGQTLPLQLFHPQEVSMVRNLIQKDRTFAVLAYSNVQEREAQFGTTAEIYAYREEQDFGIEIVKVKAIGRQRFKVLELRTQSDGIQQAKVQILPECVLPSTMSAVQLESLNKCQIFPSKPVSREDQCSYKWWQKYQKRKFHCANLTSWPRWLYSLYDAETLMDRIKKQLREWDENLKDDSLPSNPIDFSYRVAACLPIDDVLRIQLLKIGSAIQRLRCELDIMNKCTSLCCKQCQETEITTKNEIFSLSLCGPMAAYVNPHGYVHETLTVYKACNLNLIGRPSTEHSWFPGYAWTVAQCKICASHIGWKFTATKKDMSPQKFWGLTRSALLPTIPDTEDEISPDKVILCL
T1 sequence (Q16531 whole entry partner): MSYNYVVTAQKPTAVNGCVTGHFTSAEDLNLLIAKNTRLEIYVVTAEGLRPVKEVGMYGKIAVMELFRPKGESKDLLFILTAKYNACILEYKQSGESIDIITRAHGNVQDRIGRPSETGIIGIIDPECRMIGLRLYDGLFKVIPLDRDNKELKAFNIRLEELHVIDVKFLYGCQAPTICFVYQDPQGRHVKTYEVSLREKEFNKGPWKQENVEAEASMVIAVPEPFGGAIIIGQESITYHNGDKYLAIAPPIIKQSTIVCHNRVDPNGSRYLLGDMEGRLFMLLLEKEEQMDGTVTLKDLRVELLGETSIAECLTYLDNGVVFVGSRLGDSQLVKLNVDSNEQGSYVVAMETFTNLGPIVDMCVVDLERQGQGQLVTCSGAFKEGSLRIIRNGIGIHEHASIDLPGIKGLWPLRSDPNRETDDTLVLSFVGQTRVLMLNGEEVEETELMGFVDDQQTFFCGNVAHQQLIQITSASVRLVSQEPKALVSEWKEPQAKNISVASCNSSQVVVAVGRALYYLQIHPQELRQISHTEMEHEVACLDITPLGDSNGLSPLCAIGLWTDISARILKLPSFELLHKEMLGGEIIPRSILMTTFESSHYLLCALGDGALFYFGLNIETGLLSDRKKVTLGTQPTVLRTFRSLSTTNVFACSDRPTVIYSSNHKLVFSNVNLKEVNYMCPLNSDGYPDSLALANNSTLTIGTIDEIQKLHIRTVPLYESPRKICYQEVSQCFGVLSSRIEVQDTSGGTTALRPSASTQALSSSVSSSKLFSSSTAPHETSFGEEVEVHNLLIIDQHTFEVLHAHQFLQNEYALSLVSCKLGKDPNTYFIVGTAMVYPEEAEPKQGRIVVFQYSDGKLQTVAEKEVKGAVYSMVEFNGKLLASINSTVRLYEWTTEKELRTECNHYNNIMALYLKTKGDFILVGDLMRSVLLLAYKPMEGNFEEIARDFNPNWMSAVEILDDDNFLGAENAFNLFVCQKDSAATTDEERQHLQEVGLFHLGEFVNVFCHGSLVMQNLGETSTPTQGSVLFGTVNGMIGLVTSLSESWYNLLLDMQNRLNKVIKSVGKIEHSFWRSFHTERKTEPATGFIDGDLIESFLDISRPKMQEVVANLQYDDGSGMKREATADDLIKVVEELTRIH

Row | SMILES | GI50 (22RV1 cells) [nM] | DC50 (GSPT1) [nM] | GI50 (U937 cells) [nM]
1 | CC1(C)[C@H](NC(=O)c2ccc(OCCOCCOCCOCCOCCOCCOCCOc3cc(Cl)cc(NC(=O)NCc4ccc5c(c4)CN(C4CCC(=O)NC4=O)C5=O)c3)cc2)C(C)(C)[C@H]1Oc1ccc(C#N)c(Cl)c1 (stereo partly shown) [Compound I-19, N-((1r,3r)-3-(3-chloro-4-cyanophenoxy)-2,2,4,4-tetramethylcyclobutyl)-4-((20-(3-chloro-5-(3-((2-(2,6-dioxopiperidin-3-yl)-1-oxoisoindolin-5-yl)methyl)ureido)phenoxy)-3,6,9,12,15,18-hexaoxaicosyl)oxy)benzamide] | < 100 | 250 to 5000 | 
2 | CC1(C)[C@H](NC(=O)c2ccc(OCCOCCOCCOCCOCCOCCOCCOCCOCCOc3cc(Cl)cc(NC(=O)NCc4ccc5c(c4)CN(C4CCC(=O)NC4=O)C5=O)c3)cc2)C(C)(C)[C@H]1Oc1ccc(C#N)c(Cl)c1 (stereo partly shown) [Compound I-20, N-[3-(3-chloro-4-cyano-phenoxy)-2,2,4,4-tetramethyl-cyclobutyl]-4-[2-[2-[2-[2-[2-[2-[2-[2-[2-[3-chloro-5-[[2-(2,6-dioxo-3-piperidyl)-1-oxo-isoindolin-5-yl]methylcarbamoylamino]phenoxy]ethoxy]ethoxy]ethoxy]ethoxy]ethoxy]ethoxy]ethoxy]ethoxy]ethoxy]benzamide] | < 100 | 250 to 5000 | 
3 | CC1(C)[C@H](NC(=O)c2ccc(OCCOCCOCCOCCOCCOCCOCCOCCOCCOCCOCCOc3cc(Cl)cc(NC(=O)NCc4ccc5c(c4)CN(C4CCC(=O)NC4=O)C5=O)c3)cc2)C(C)(C)[C@H]1Oc1ccc(C#N)c(Cl)c1 (stereo partly shown) [Compound I-21, N-[3-(3-chloro-4-cyano-phenoxy)-2,2,4,4-tetramethyl-cyclobutyl]-4-[2-[2-[2-[2-[2-[2-[2-[2-[2-[2-[2-[3-chloro-5-[[2-(2,6-dioxo-3-piperidyl)-1-oxo-isoindolin-5-yl]methylcarbamoylamino]phenoxy]ethoxy]ethoxy]ethoxy]ethoxy]ethoxy]ethoxy]ethoxy]ethoxy]ethoxy]ethoxy]ethoxy]benzamide] | 100 to 1000 | 250 to 5000 | 
4 | CC1(C)[C@H](NC(=O)c2ccc(OCCOCCOCCOCCOCCOCCOCCc3cc(Cl)cc(NC(=O)NCc4ccc5c(c4)CN(C4CCC(=O)NC4=O)C5=O)c3)cc2)C(C)(C)[C@H]1Oc1ccc(C#N)c(Cl)c1 (stereo partly shown) [Compound I-22, N-((1r,3r)-3-(3-chloro-4-cyanophenoxy)-2,2,4,4-tetramethylcyclobutyl)-4-((20-(3-chloro-5-(3-((2-(2,6-dioxopiperidin-3-yl)-1-oxoisoindolin-5-yl)methyl)ureido)phenyl)-3,6,9,12,15,18-hexaoxaicosyl)oxy)benzamide] | < 100 | < 250 | 
5 | CN(C/C=C/C(=O)N1CCC[C@@H](n2nc(-c3ccc(Oc4ccccc4)cc3)c3c(N)ncnc32)C1)CCOCCOCCOCCOCCOCCOCCOCCOCCCCCCCCc1cc(Cl)cc(NC(=O)NCc2ccc3c(c2)CN(C2CCC(=O)NC2=O)C3=O)c1 (stereo partly shown) [Compound I-73] |  | < 250 | < 100
6 | CN(C/C=C/C(=O)N1CCC([C@@H]2CCNc3c(C(N)=O)c(-c4ccc(Oc5ccccc5)cc4)nn32)CC1)CCOCCOCCOCCOCCCCCCCCc1cc(Cl)cc(NC(=O)NCc2ccc3c(c2)CN(C2CCC(=O)NC2=O)C3=O)c1 (stereo partly shown) [Compound I-74] |  | < 250 | < 100
7 | CN(C/C=C/C(=O)N1CCC([C@@H]2CCNc3c(C(N)=O)c(-c4ccc(Oc5ccccc5)cc4)nn32)CC1)CCOCCOCCOCCOCCOCCOCCCCCCCCc1cc(Cl)cc(NC(=O)NCc2ccc3c(c2)CN(C2CCC(=O)NC2=O)C3=O)c1 (stereo partly shown) [Compound I-75] |  | < 250 | < 100
8 | CN(C/C=C/C(=O)N1CCC([C@@H]2CCNc3c(C(N)=O)c(-c4ccc(Oc5ccccc5)cc4)nn32)CC1)CCOCCOCCOCCOCCOCCOCCOCCOCCCCCCCCc1cc(Cl)cc(NC(=O)NCc2ccc3c(c2)CN(C2CCC(=O)NC2=O)C3=O)c1 (stereo partly shown) [Compound I-76] |  | < 250 | < 100
